PMC7708037, “Targeting OGG1 arrests cancer cell proliferation by inducing replication stress” (Nucleic Acids Research, 2020)
“Also recorded” adds a separate entry of the source.

How the values were obtained:
[1] = test system: EdU incorporation in A3 cells; assay: EdU flow cytometry analysis; format: cell-based, human; conditions: 10 μM
Experimental: At the indicated time points, compound/dox treated cells were incubated in medium containing 10 μM 5-ethynyl-2′-deoxyuridine (EdU) (Thermo Fisher, A10044) for 20 min. Next, cells were fixed in cold 70% ethanol overnight. The azide alkyne Huisgen cycloaddition (‘Click reaction’) was carried out according to the Click-iT EdU Imaging Manual (Thermo Fisher) using various fluorescent dyes: Alexa Fluor® 488 azide (Thermo Fisher, A10266), Alexa Fluor® 647 azide (Thermo Fisher, A10277), or TAMRA azide (Thermo Fisher, T10182), depending on assay conditions. Samples were incubated with Alexa Fluor® 488 Mouse anti-H2AX (pS139) (BD Biosciences, 560445) overnight at 4°C and finally stained with DAPI solution [10 μg/ml DAPI (Sigma, D9542), 0.1 mg/ml RNase A (Thermo Fisher, EN0531), 1% BSA in PBS] for 20 min at room temperature. Measurements were done using a Navios Flow Cytometer (Beckman Coulter). Data was analyzed using Kaluza® Flow Analysis Software (Beckman Coulter).
Supplementary Fig. S7: EdU incorporation in OGG1 perturbed A3 cells. A. Cells harboring the indicated shRNA constructs were treated with doxycycline for 48, 96 and 144 h and pulsed with EdU for 20 minutes before fixation, followed by Alexa-488 conjugation by click chemistry and quantitation by flow cytometry. […] Statistical significance was determined using unpaired, two-sided T-tests (*, […]

[2] = set-up: method as in PMID 30442810; conditions: cited from earlier work
[3] = set-up: method as in PMID 30442810; conditions: cited from earlier work; remark: listed apart in the source
OGG1 enzyme = OGG1 enzyme (Homo sapiens, UniProt O15527); assay: Cellular thermal shift assay in excised xenograft tumors; format: in vivo; set-up: endogenous in cells; host or cells: A3 T-cell acute lymphoblastic leukemia cells (luciferase-transfected) grown as subcutaneous xenograft tumours in NOD-SCID mice; conditions: A3 xenograft tumors excised following termination
Experimental: Animal experiments were conducted as per the European directive, ethical guideline and regulations of the regional animal ethical committee Stockholm 2010/63 (N8914). Upon arrival to animal facility, animals were acclimatized in the animal house for a week with ad lib food and water, with a 12 h light cycle and the temperature and humidity set according to laboratory animal guidelines and regulations. For the xenograft experiment involving inducible shRNA, 1 × 10^7 non-targeting luciferase transfected A3 cells in 50% matrigel in PBS were injected into flank region of BALB/c nude mice. Later, mice from non-targeting and shRNA groups were randomly divided into two groups containing eight mice per group. […] Tumor volume was measured using calipers (length × 0.52 × width × width) and bioluminescence images were taken using an IVIS spectrum in vivo imaging system (Perkin-Elmer) after intraperitoneal injection of D-luciferin (150 mg/kg in PBS). […] Following lysis by three freeze-thaw cycles, samples were centrifuged at 20 000 × g for 30 min, and OGG1 in the supernatant was detected by immunoblotting. […]
Figure 7. […] Tumors were excised following termination, and TH5487 target engagement was analyzed by cellular thermal shift assay, using an antibody specific for the human OGG1 protein. […]

Sequence of OGG1 enzyme (O15527 whole entry): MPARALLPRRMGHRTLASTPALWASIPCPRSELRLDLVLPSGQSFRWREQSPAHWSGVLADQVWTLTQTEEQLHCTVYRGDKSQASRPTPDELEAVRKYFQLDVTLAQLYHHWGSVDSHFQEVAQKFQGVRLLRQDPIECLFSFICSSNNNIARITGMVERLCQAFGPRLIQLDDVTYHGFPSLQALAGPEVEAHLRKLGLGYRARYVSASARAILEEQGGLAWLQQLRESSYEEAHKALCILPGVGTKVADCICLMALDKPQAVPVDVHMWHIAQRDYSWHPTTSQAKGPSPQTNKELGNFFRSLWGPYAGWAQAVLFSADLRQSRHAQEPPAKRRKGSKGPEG

O=C(Nc1ccc(I)cc1)N1CCC(n2c(=O)[nH]c3c(Br)cccc32)CC1 [TH5487]
DNA synthesis (EdU incorporation) [1]: only detectable after 96 h treatment; also recorded: DNA synthesis was reduced | Stability in mouse serum [2]: stable | Fraction associated with plasma proteins [3]: more than 99% | OGG1 target engagement in xenograft tumor (CETSA) (OGG1 enzyme): unable to demonstrate OGG1 target engagement
